Data: paper PMC7588595, “Small-molecule active pharmaceutical ingredients of approved cancer therapeutics inhibit human aspartate/asparagine-β-hydroxylase” (Bioorganic & Medicinal Chemistry, 2020)
Counter-ions that a name gives are not always drawn. Starred links: 1 amine or outer side, 2 acyl side, 3 side chain; linkers in the order of their positions; H or OH if unused. Positions of bridges follow the written chain, without caps; N, C: chain ends. Non-standard residues stand in square brackets, D forms with d. Residues, ends and D or L forms follow the SMILES beside them. Chains are numbered I, II in the order given. Actinocin(9to1) = Cc1c2oc3c(C)ccc(C(=O)[*:1])c3nc-2c(C(=O)[*:2])c(N)c1=O; NMeV = CN[C@H](C(=O)O)C(C)C; Sar = CNCC(=O)O

Target: T1, human AspH (His6-AspH315–758) (Homo sapiens, UniProt Q12797)
T1 construct: N-Terminally His6-tagged human AspH315–758 (His6-AspH315–758) was produced in Escherichia coli BL21 (DE3) cells; made in house; host or cells: Escherichia coli BL21 (DE3), pET-28a(+) vector
T1 sequence (Q12797 315-758): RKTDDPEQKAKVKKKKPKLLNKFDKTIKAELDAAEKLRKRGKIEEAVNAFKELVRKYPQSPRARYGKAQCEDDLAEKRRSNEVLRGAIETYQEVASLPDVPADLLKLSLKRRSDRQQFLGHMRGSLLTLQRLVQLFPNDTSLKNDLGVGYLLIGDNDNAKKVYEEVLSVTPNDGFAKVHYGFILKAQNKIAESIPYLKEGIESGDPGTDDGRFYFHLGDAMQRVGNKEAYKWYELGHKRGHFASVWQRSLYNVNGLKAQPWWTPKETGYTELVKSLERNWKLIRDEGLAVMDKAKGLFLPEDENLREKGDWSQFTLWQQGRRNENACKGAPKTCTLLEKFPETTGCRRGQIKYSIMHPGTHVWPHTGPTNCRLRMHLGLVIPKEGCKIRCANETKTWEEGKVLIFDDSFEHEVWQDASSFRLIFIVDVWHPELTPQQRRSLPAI
Test: SPE-MS AspH inhibition assay (hFX-CP101-119 substrate hydroxylation)
Assay type: biochemical
Details: AspH-inhibitor screening; for Plate 1 (% inhibition): 384-well Plate 1; for Plate 1 (% conversion): 384-well Plate 1, substrate conversion; for Plate 1-duplicate (% conversion): substrate conversion

Row | SMILES | Plate 1 (% inhibition) | Plate 1 (% conversion) | Plate 1-duplicate (% inhibition) | Plate 1-duplicate (% conversion)
1 | Nc1ccn([C@@H]2O[C@H](CO)[C@@H](O)[C@@H]2O)c(=O)n1 [Cytarabine hydrochloride] | 2.14% | 48.76% | 3.50% | 50.30%
2 | CNC(=O)c1cc(Oc2ccc(NC(=O)Nc3cc(C(C)(C)C)nn3-c3ccc4ncccc4c3)c(F)c2)ccn1 [DCC-2036_Rebastinib] | 0.16% | 49.67% | 3.62% | 50.25%
3 | CC(C)(C)c1nc(-c2cccc(NS(=O)(=O)c3c(F)cccc3F)c2F)c(-c2ccnc(N)n2)s1.CS(=O)(=O)O [Dabrafenib Mesylate] | 21.60% | 39.78% | 12.13% | 46.02%
4 | CN(C)/N=N/c1[nH]cnc1C(N)=O [Dacarbazine] | -0.11% | 49.80% | 7.93% | 48.11%
5 | COc1cc2ncnc(Nc3ccc(F)c(Cl)c3)c2cc1NC(=O)/C=C/CN1CCCCC1.O [Dacomitinib (monohydrate) (PF-00299804)] | -68.38% | 81.33% | -15.02% | 59.49%
6 | Cc1c2oc3c(C)ccc(C(=O)N[C@@H]4C(=O)N[C@H](C(C)C)C(=O)N5CCC[C@H]5C(=O)N(C)CC(=O)N(C)[C@@H](C(C)C)C(=O)O[C@@H]4C)c3nc-2c(C(=O)N[C@@H]2C(=O)N[C@H](C(C)C)C(=O)N3CCC[C@H]3C(=O)N(C)CC(=O)N(C)[C@@H](C(C)C)C(=O)O[C@@H]2C)c(N)c1=O [Dactinomycin] (I: T[dV]P[Sar][NMeV] / II: T[dV]P[Sar][NMeV]; ester I:1-I:C, II:1-II:C; linker I:N-II:N via Actinocin(9to1)) | -0.066% | 49.78% | -9.41% | 56.71%
7 | Cc1nc(Nc2ncc(C(=O)Nc3c(C)cccc3Cl)s2)cc(N2CCN(CCO)CC2)n1 [Dasatinib] | -20.82% | 59.36% | -21.12% | 62.52%
8 | COc1cccc2c1C(=O)c1c(O)c3c(c(O)c1C2=O)C[C@@](O)(C(C)=O)C[C@@H]3O[C@H]1C[C@H](N)[C@H](O)[C@H](C)O1 [Daunorubicin hydrochloride] | -28.45% | 62.89% | -40.01% | 71.89%
9 | Nc1ncn([C@H]2C[C@H](O)[C@@H](CO)O2)c(=O)n1 [Decitabine (Dacogen)] | 4.17% | 47.83% | 0.31% | 51.89%
10 | CC(=O)N(O)CCCCCNC(=O)CCC(=O)N(O)CCCCCNC(=O)CCC(=O)N(O)CCCCCN [Deferoxamine mesylate] | 14.63% | 43.00% | 7.26% | 48.44%
11 | C[C@@H]1C[C@H]2[C@@H]3CCC4=CC(=O)C=C[C@]4(C)[C@@]3(F)[C@@H](O)C[C@]2(C)[C@@]1(O)C(=O)CO [Dexamethasone (Decadron)] | 0.59% | 49.48% | 1.33% | 51.38%
12 | C[C@@H](CN1CC(=O)NC(=O)C1)N1CC(=O)NC(=O)C1 [Dexrazoxane] | 16.70% | 42.04% | 14.98% | 44.61%
13 | CCc1cnn2c(NCc3ccc[n+]([O-])c3)cc(N3CCCC[C@H]3CCO)nc12 [Dinaciclib (SCH727965)] | 1.39% | 49.11% | 2.62% | 50.74%
14 | CC(=O)O[C@@]12CO[C@@H]1C[C@H](O)[C@@]1(C)C(=O)[C@H](O)C3=C(C)[C@@H](OC(=O)[C@H](O)[C@@H](NC(=O)OC(C)(C)C)c4ccccc4)C[C@@](O)([C@@H](OC(=O)c4ccccc4)[C@H]21)C3(C)C [Docetaxel] | -5.60% | 52.34% | 2.03% | 51.03%
15 | COc1cccc2c1C(=O)c1c(O)c3c(c(O)c1C2=O)C[C@@](O)(C(=O)CO)C[C@@H]3O[C@H]1C[C@H](N)[C@H](O)[C@H](C)O1 [Doxorubicin] | -11.25% | 54.95% | -1.25% | 52.66%
16 | CN1CCC(COc2cnc(-c3cccc(Cn4nc(-c5cccc(C#N)c5)ccc4=O)c3)nc2)CC1 [EMD1214063] | 3.55% | 48.11% | 3.19% | 50.46%
17 | Nc1ccccc1NC(=O)c1ccc(CNC(=O)OCc2cccnc2)cc1 [Entinostat] | -5.93% | 52.49% | -4.09% | 54.07%
18 | CNC(=O)c1ccc(N2C(=S)N(c3ccc(C#N)c(C(F)(F)F)c3)C(=O)C2(C)C)cc1F [Enzalutamide] | -2.61% | 50.95% | -6.89% | 55.46%
19 | Cn1cc(C2=C(c3cn(C4CCN(Cc5ccccn5)CC4)c4ccccc34)C(=O)NC2=O)c2ccccc21 [Enzastaurin] | -3.95% | 51.57% | -0.48% | 52.28%
20 | COc1cccc2c1C(=O)c1c(O)c3c(c(O)c1C2=O)C[C@@](O)(C(=O)CO)C[C@@H]3O[C@H]1C[C@H](N)[C@@H](O)[C@H](C)O1 [Epirubicin hydrochloride] | -8.14% | 53.51% | -28.05% | 65.95%
